Results reported in the supplement of paper PMC10883282.
± gives the standard deviation of the averaged measurements.

Experiments:
Assay in all cases: relative viability vs DMSO control (72 h) (fraction); higher = more viable cells
HT1080 = test system: HT1080
In short: (§1)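 Densities for seeding sarcoma cell lines into 384-well plates were set to give 80–90% confluence. After 24 h, 2.5 µl of serially diluted compound from source plates of 10 mM to 0.0002 mM went in, and plates stayed 72 h at 37 °C in 5% CO2 with 0.1% DMSO vehicle and a 5 µM positive control. Percent growth from ATPLite readings, averaged over up to triplicate wells, served as relative viability, rescaled so 1 means full and 0 means none.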

MES-SA = test system: MES-SA
In short: as §1

SW684 = test system: SW684
In short: as §1

KHOS-NP = test system: KHOS-NP
In short: as §1

VA-ES-BJ = test system: VA-ES-BJ
In short: as §1

SK-LMS-1 = test system: SK-LMS-1
In short: as §1

SW872 = test system: SW872
In short: as §1

SK-ES-1 = test system: SK-ES-1
In short: as §1

G401 = test system: G401
In short: as §1

SW1353 = test system: SW1353
In short: as §1

RD-ES = test system: RD-ES
In short: as §1

RD = test system: RD
In short: as §1

CO[C@H]1C[C@@H]2CC[C@@H](C)[C@@](O)(O2)C(=O)C(=O)N2CCCC[C@H]2C(=O)O[C@H]([C@H](C)C[C@@H]2CC[C@@H](OC(=O)C(C)(CO)CO)[C@H](OC)C2)CC(=O)[C@H](C)/C=C(\C)[C@@H](O)[C@@H](OC)C(=O)[C@H](C)C[C@H](C)/C=C/C=C/C=C/1C [Temsirolimus]
Details	relative viability
G401, 0.00017 µM	0.945 ± 0.038
G401, 0.00051 µM	0.917 ± 0.049
G401, 0.00152 µM	0.869 ± 0.048
G401, 0.00457 µM	0.82 ± 0.064
G401, 0.01372 µM	0.766 ± 0.033
G401, 0.04115 µM	0.706 ± 0.022
G401, 0.1235 µM	0.665 ± 0.011
G401, 0.3704 µM	0.637 ± 0.025
G401, 1.111 µM	0.621 ± 0.0071
G401, 3.333 µM	0.586 ± 0.023
G401, 10 µM	0.396 ± 0.034
HT1080, 0.00017 µM	1.02 ± 0.045
HT1080, 0.00051 µM	1.01 ± 0.035
HT1080, 0.00152 µM	1.05 ± 0.043
HT1080, 0.00457 µM	1.01 ± 0.041
HT1080, 0.01372 µM	0.95 ± 0.025
HT1080, 0.04115 µM	0.918 ± 0.036
HT1080, 0.1235 µM	0.936 ± 0.044
HT1080, 0.3704 µM	0.929 ± 0.033
HT1080, 1.111 µM	0.908 ± 0.039
HT1080, 3.333 µM	0.8 ± 0.047
HT1080, 10 µM	0.0491 ± 0.0031
KHOS-NP, 0.00017 µM	1.05 ± 0.013
KHOS-NP, 0.00051 µM	1.05 ± 0.026
KHOS-NP, 0.00152 µM	1.03 ± 0.022
KHOS-NP, 0.00457 µM	1.044 ± 0.01
KHOS-NP, 0.01372 µM	1.05 ± 0.025
KHOS-NP, 0.04115 µM	1.036 ± 0.0084
KHOS-NP, 0.1235 µM	1.04 ± 0.017
KHOS-NP, 0.3704 µM	1 ± 0.033
KHOS-NP, 1.111 µM	0.96 ± 0.043
KHOS-NP, 3.333 µM	0.907 ± 0.09
KHOS-NP, 10 µM	0.0158 ± 0.00056
MES-SA, 0.00017 µM	0.814 ± 0.042
MES-SA, 0.00051 µM	0.651 ± 0.03
MES-SA, 0.00152 µM	0.497 ± 0.042
MES-SA, 0.00457 µM	0.423 ± 0.008
MES-SA, 0.01372 µM	0.382 ± 0.022
MES-SA, 0.04115 µM	0.3571 ± 0.003
MES-SA, 0.1235 µM	0.353 ± 0.021
MES-SA, 0.3704 µM	0.3494 ± 0.0012
MES-SA, 1.111 µM	0.343 ± 0.018
MES-SA, 3.333 µM	0.314 ± 0.015
MES-SA, 10 µM	0.223 ± 0.008
RD, 0.00017 µM	1.09 ± 0.063
RD, 0.00051 µM	1.01 ± 0.064
RD, 0.00152 µM	0.91 ± 0.069
RD, 0.00457 µM	0.84 ± 0.059
RD, 0.01372 µM	0.792 ± 0.052
RD, 0.04115 µM	0.755 ± 0.057
RD, 0.1235 µM	0.735 ± 0.032
RD, 0.3704 µM	0.681 ± 0.043
RD, 1.111 µM	0.667 ± 0.021
RD, 3.333 µM	0.578 ± 0.07
RD, 10 µM	0.441 ± 0.037
RD-ES, 0.00017 µM	0.908 ± 0.032
RD-ES, 0.00051 µM	0.865 ± 0.076
RD-ES, 0.00152 µM	0.771 ± 0.095
RD-ES, 0.00457 µM	0.745 ± 0.058
RD-ES, 0.01372 µM	0.687 ± 0.098
RD-ES, 0.04115 µM	0.656 ± 0.079
RD-ES, 0.1235 µM	0.625 ± 0.081
RD-ES, 0.3704 µM	0.568 ± 0.081
RD-ES, 1.111 µM	0.526 ± 0.076
RD-ES, 3.333 µM	0.435 ± 0.089
RD-ES, 10 µM	0.107 ± 0.075
SK-ES-1, 0.00017 µM	0.959 ± 0.019
SK-ES-1, 0.00051 µM	0.904 ± 0.031
SK-ES-1, 0.00152 µM	0.8013 ± 0.0064
SK-ES-1, 0.00457 µM	0.707 ± 0.018
SK-ES-1, 0.01372 µM	0.64 ± 0.06
SK-ES-1, 0.04115 µM	0.579 ± 0.012
SK-ES-1, 0.1235 µM	0.52 ± 0.017
SK-ES-1, 0.3704 µM	0.538 ± 0.04
SK-ES-1, 1.111 µM	0.519 ± 0.017
SK-ES-1, 3.333 µM	0.432 ± 0.024
SK-ES-1, 10 µM	0.126 ± 0.034
SK-LMS-1, 0.00017 µM	0.916 ± 0.028
SK-LMS-1, 0.00051 µM	0.699 ± 0.035
SK-LMS-1, 0.00152 µM	0.6325 ± 0.004
SK-LMS-1, 0.00457 µM	0.597 ± 0.017
SK-LMS-1, 0.01372 µM	0.537 ± 0.022
SK-LMS-1, 0.04115 µM	0.495 ± 0.012
SK-LMS-1, 0.1235 µM	0.477 ± 0.031
SK-LMS-1, 0.3704 µM	0.472 ± 0.021
SK-LMS-1, 1.111 µM	0.464 ± 0.02
SK-LMS-1, 3.333 µM	0.441 ± 0.005
SK-LMS-1, 10 µM	0.0134 ± 0.001
SW684, 0.00017 µM	1.06 ± 0.057
SW684, 0.00051 µM	1.04 ± 0.038
SW684, 0.00152 µM	0.956 ± 0.075
SW684, 0.00457 µM	0.919 ± 0.05
SW684, 0.01372 µM	0.799 ± 0.027
SW684, 0.04115 µM	0.711 ± 0.029
SW684, 0.1235 µM	0.752 ± 0.051
SW684, 0.3704 µM	0.79 ± 0.026
SW684, 1.111 µM	0.767 ± 0.038
SW684, 3.333 µM	0.767 ± 0.015
SW684, 10 µM	-0.00523 ± 0.0025
SW872, 0.00017 µM	0.85 ± 0.035
SW872, 0.00051 µM	0.805 ± 0.063
SW872, 0.00152 µM	0.759 ± 0.04
SW872, 0.00457 µM	0.682 ± 0.037
SW872, 0.01372 µM	0.643 ± 0.063
SW872, 0.04115 µM	0.594 ± 0.026
SW872, 0.1235 µM	0.569 ± 0.045
SW872, 0.3704 µM	0.553 ± 0.041
SW872, 1.111 µM	0.516 ± 0.048
SW872, 3.333 µM	0.518 ± 0.031
SW872, 10 µM	0.461 ± 0.015
SW1353, 0.00017 µM	0.892 ± 0.051
SW1353, 0.00051 µM	0.859 ± 0.059
SW1353, 0.00152 µM	0.827 ± 0.1
SW1353, 0.00457 µM	0.781 ± 0.1
SW1353, 0.01372 µM	0.745 ± 0.12
SW1353, 0.04115 µM	0.72 ± 0.06
SW1353, 0.1235 µM	0.68 ± 0.046
SW1353, 0.3704 µM	0.664 ± 0.027
SW1353, 1.111 µM	0.63 ± 0.046
SW1353, 3.333 µM	0.602 ± 0.05
SW1353, 10 µM	0.149 ± 0.013
VA-ES-BJ, 0.00017 µM	0.864 ± 0.052
VA-ES-BJ, 0.00051 µM	0.723 ± 0.024
VA-ES-BJ, 0.00152 µM	0.577 ± 0.027
VA-ES-BJ, 0.00457 µM	0.547 ± 0.026
VA-ES-BJ, 0.01372 µM	0.487 ± 0.031
VA-ES-BJ, 0.04115 µM	0.448 ± 0.012
VA-ES-BJ, 0.1235 µM	0.415 ± 0.0084
VA-ES-BJ, 0.3704 µM	0.42 ± 0.022
VA-ES-BJ, 1.111 µM	0.419 ± 0.0095
VA-ES-BJ, 3.333 µM	0.415 ± 0.02
VA-ES-BJ, 10 µM	0.377 ± 0.0045
